Source: patent US10550102B2, “Indane and indoline derivatives and the use thereof as soluble guanylate cyclase activators” (NOVARTIS AG, priority 2014, dated 2020)

Biological target: soluble guanylate cyclase (human GUCYA3 and GUCYB3) overexpressed in CHO cells (Homo sapiens (Human), UniProt Q02108+Q02153)
Experiment: CHO cellular assay (cGMP production, Cisbio cGMP HTRF kit)
Assay type: cell-based
Conditions: CHO GUCY clone 8E10, cGMP production, assay buffer with 1 mM IBMX and 20 uM ODQ, 1 h room temperature; minimum quantification limit 0.5 nM (listed 0.5 nM means ≤0.5 nM); read-out: EC50
In short: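 Stable CHO-K1 clone 8E10 expressing human sGC (GUCYA3/GUCYB3), 3000 cells/well, exposed 1 h at room temperature to activators in HBSS, 0.1% BSA, 1 mM IBMX, 20 uM ODQ, 0.5% DMSO final. cGMP was measured by HTRF and interpolated from a standard curve. EC50 came from a 4-parameter sigmoidal fit.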

Sequence of soluble guanylate cyclase (human GUCYA3 and GUCYB3) overexpressed in CHO cells (Q02108 whole entry partner): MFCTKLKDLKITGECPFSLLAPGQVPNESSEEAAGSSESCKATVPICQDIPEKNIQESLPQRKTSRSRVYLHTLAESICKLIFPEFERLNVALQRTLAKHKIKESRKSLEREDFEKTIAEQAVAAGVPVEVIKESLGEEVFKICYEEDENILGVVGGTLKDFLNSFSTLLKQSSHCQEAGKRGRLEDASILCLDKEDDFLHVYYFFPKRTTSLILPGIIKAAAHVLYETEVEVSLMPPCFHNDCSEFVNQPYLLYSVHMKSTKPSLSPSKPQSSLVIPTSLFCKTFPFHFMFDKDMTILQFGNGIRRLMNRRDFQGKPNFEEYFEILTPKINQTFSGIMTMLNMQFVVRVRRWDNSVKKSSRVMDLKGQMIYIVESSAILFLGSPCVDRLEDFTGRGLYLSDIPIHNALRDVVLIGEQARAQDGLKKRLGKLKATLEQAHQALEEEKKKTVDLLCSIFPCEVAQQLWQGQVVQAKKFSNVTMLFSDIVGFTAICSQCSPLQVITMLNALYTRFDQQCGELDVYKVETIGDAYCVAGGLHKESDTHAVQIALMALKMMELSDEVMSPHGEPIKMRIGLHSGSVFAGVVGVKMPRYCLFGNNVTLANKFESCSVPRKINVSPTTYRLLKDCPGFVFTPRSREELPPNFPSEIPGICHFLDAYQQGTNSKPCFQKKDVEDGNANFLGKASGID
Sequence of soluble guanylate cyclase (human GUCYA3 and GUCYB3) overexpressed in CHO cells (Q02153 whole entry): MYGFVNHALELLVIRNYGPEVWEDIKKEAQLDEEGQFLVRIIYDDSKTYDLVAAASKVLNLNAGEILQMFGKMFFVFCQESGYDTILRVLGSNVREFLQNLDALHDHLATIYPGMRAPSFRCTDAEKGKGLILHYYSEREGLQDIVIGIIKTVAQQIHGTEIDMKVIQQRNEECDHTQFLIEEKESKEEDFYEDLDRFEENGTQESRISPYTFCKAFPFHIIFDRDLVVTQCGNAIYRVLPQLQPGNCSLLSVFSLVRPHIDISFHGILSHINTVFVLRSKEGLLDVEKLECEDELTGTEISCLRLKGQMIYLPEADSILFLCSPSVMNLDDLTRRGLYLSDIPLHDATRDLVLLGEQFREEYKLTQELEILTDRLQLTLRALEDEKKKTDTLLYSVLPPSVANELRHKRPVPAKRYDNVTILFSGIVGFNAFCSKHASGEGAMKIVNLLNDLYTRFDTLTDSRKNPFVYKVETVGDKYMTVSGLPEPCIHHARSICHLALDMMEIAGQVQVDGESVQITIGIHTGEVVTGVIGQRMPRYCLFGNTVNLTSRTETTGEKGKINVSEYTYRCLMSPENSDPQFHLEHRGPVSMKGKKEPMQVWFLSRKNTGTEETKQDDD

`Cc1cc(C2CCN(C(=O)CC3CC3)CC2)ccc1NC1CCc2cccc(-c3cccc(-n4ncc(C(=O)O)c4C)n3)c21` (single isomer, unassigned; (+)) [(+)-46-3, (+)-1-(6-(3-((4-(1-(2-Cyclopropylacetyl)piperidin-4-yl)-2-methylphenyl)amino)-2,3-dihydro-1H-inden-4-yl)pyridin-2-yl)-5-methyl-1H-pyrazole-4-carboxylic acid] and `Cc1cc(C2CCN(C(=O)CC3CC3)CC2)c(F)cc1NC1CCc2cccc(-c3cccc(-n4ncc(C(=O)O)c4C)n3)c21` (single isomer, unassigned; (+)) [(+)-46-5, (+)-1-(6-(3-((4-(1-(2-Cyclopropylacetyl)piperidin-4-yl)-5-fluoro-2-methylphenyl)amino)-2,3-dihydro-1H-inden-4-yl)pyridin-2-yl)-5-methyl-1H-pyrazole-4-carboxylic acid] are the same in EC50: 1 nM for the first, 1 nM for the second.

`CCc1cc(O[C@H]2CCc3cccc(-c4cccc(-n5ncc(C(=O)O)c5CC)n4)c32)ccc1C1CCN(C(=O)C2(O)CC2)CC1` [Example 33, (S)-5-ethyl-1-(6-(3-(3-ethyl-4-(1-(1-hydroxycyclopropanecarbonyl)piperidin-4-yl)phenoxy)-2,3-dihydro-1H-inden-4-yl)pyridin-2-yl)-1H-pyrazole-4-carboxylic Acid] and `CCc1cc(O[C@H]2CCc3cccc(-c4cccc(-n5ncc(C(=O)O)c5CC)n4)c32)ccc1C1CCN(C(=O)[C@H](C)O)CC1` [Example 30] cannot be ordered by EC50: no more than 0.5 nM for the first, no more than 0.5 nM for the second.

Compared with `Cc1cc(C2CCN(C(=O)C3CC3)CC2)ccc1CC1CCc2cccc(-c3cccc(-n4ncc(C(=O)O)c4C)n3)c21` (single isomer, unassigned; (+)) [Example 37. b). (+), (+)-1-(6-(3-(4-(1-(Cyclopropanecarbonyl)piperidin-4-yl)-2-methylbenzyl)-2,3-dihydro-1H-inden-4-yl)pyridin-2-yl)-5-methyl-1H-pyrazole-4-carboxylic acid], `CCc1c(C(=O)O)cnn1-c1cccc(-c2cccc3c2C(Cc2ccc(C4CCN(C(=O)C5CC5)CC4)cc2C)CC3)n1` (single isomer, unassigned; (-)) [38-3 (−), (−)-1-(6-(3-(4-(1-(cyclopropanecarbonyl)piperidin-4-yl)-2-methylbenzyl)-2,3-dihydro-1H-inden-4-yl)pyridin-2-yl)-5-ethyl-1H-pyrazole-4-carboxylic acid] is higher in EC50: no more than 0.5 nM for the first, 33 nM for the second. The first is the more potent here.

Going from `CCc1c(C(=O)O)cnn1-c1cccc(-c2cccc3c2N(Cc2ccc(C4CCN(C(=O)[C@H](C)O)CC4)cc2C)CC3)n1` [Example 18, (S)-5-Ethyl-1-(6-(1-(4-(1-(2-hydroxypropanoyl)piperidin-4-yl)-2-methylbenzyl)indolin-7-yl)pyridin-2-yl)-1H-pyrazole-4-carboxylic Acid] to `Cc1cc(C2CCN(C(=O)[C@H](C)O)CC2)ccc1NC1CCc2cccc(-c3cccc(-n4ncc(C(=O)O)c4C)n3)c21` (single isomer, unassigned; (-)) [Example 47b], the EC50 rises from 1.4 nM to 27 nM (19-fold).

Compared with `CCc1cc(CC2CCc3cccc(-c4cccc(-n5ncc(C(=O)O)c5CC)n4)c32)ccc1C1CCN(C(=O)OC)CC1` (single isomer, unassigned; (+)) [Example 41. b). (+), (+)-5-ethyl-1-(6-(3-(3-ethyl-4-(1-(methoxycarbonyl)piperidin-4-yl)benzyl)-2,3-dihydro-1H-inden-4-yl)pyridin-2-yl)-1H-pyrazole-4-carboxylic acid], `C=CCOC(=O)N1CCC(c2ccc(NC3CCc4cccc(-c5cccc(-n6ncc(C(=O)O)c6CC)n5)c43)cc2CC)CC1` (single isomer, unassigned; (-)) [(−)-52-3, (−)-1-(6-(3-((4-(1-((Allyloxy)carbonyl)piperidin-4-yl)-3-ethylphenyl)amino)-2,3-dihydro-1H-inden-4-yl)pyridin-2-yl)-5-ethyl-1H-pyrazole-4-carboxylic acid] is higher in EC50: no more than 0.5 nM for the first, 3 nM for the second. The first is the more potent here.

`CCc1cc(NC2CCc3cccc(-c4cccc(-n5ncc(C(=O)O)c5CC)n4)c32)ccc1C1CCN(C(=O)[C@@H](O)CC)CC1` (single isomer, unassigned; (+)) [Example 50a] gave an EC50 of no more than 0.5 nM.
